The results in this text go back to patent US10336730B2, “Substituted glycine derived FXIA inhibitors” (BRISTOL-MYERS SQUIBB COMPANY, priority 2015, dated 2019).

T1 sequence (P03951 388-625 limits assumed): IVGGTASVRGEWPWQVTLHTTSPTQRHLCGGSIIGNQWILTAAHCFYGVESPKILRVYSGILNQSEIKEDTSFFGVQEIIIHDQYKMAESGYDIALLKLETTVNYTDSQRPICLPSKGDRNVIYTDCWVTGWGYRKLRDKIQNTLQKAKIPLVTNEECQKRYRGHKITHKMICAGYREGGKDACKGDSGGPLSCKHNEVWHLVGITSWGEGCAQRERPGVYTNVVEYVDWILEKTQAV
T1 sequence (P03951 19-387 partner limits assumed): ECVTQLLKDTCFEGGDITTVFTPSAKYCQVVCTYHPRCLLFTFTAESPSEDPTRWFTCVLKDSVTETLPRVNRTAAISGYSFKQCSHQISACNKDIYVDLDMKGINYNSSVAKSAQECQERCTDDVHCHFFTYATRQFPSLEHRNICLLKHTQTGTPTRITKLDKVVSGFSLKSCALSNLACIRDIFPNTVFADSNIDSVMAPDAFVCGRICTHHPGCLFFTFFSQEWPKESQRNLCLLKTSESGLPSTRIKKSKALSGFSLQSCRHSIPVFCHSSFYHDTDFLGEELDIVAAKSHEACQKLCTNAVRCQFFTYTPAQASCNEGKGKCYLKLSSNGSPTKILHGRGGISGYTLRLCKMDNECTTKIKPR

The assay addresses T1, purified human Factor XIa (Homo sapiens, UniProt P03951).
T1 construct: purchased Haematologic Technologies
The assay can be described thus: Factor XIa enzyme inhibition assay (chromogenic substrate S-2366), Ki. The following applies: substrate S-2366, pH 7.4. The format is biochemical. The method, boiled down:
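Purified human Factor XIa ([…] final) with chromogenic substrate S-2366 (0.0002-0.001 M) in 50 mM HEPES pH 7.4, 145 mM NaCl, 5 mM KCl, 0.1% PEG 8000. Velocities measured over 20-180 minutes with and without inhibitor; Ki derived assuming competitive inhibition, e.g. Ki=IC50/(1+S/Km).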
The compound `O=C(NCc1n[nH]c2c1CCCC2)[C@H](Cc1ccccc1)n1cnc(-c2cc(Cl)ccc2-n2cc(Cl)nn2)cc1=O` [Example 91, (S)-2-(4-(5-chloro-2-(4-chloro-1H-1,2,3-triazol-1-yl)phenyl)-6-oxopyrimidin-1(6H)-yl)-3-phenyl-N-((4,5,6,7-tetrahydro-1H-indazol-3-yl)methyl)propanamide] showed a Ki of 2.85 µM. The same measure for `N#Cc1ccc(NC(=O)[C@H](Cc2ccccc2)n2cnc(-c3cc(Cl)ccc3-n3cc(Cl)nn3)cc2=O)cc1F` [Example 92, (S)-2-(4-(5-chloro-2-(4-chloro-1H-1,2,3-triazol-1-yl)phenyl)-6-oxopyrimidin-1(6H)-yl)-N-(4-cyano-3-fluorophenyl)-3-phenylpropanamide]: 0.126 µM; for `Cc1nccn1-c1ccc(NC(=O)[C@H](Cc2ccccc2)n2cnc(-c3cc(Cl)ccc3-n3cc(Cl)nn3)cc2=O)cc1` [Example 93, (S)-2-(4-(5-chloro-2-(4-chloro-1H-1,2,3-triazol-1-yl)phenyl)-6-oxopyrimidin-1(6H)-yl)-N-(4-(2-methyl-1H-imidazol-1-yl)phenyl)-3-phenylpropanamide]: 0.111 µM. The value for `O=C(Nc1ccc(-n2ccnc2)cc1)[C@H](Cc1ccccc1)n1cnc(-c2cc(Cl)ccc2-n2cc(Cl)nn2)cc1=O` [Example 94, (S)-N-(4-(1H-imidazol-1-yl)phenyl)-2-(4-(5-chloro-2-(4-chloro-1H-1,2,3-triazol-1-yl)phenyl)-6-oxopyrimidin-1(6H)-yl)-3-phenylpropanamide] was 0.0257 µM; that for `CN(C)Cc1nccn1-c1ccc(NC(=O)[C@H](Cc2ccccc2)n2cnc(-c3cc(Cl)ccc3-n3cc(Cl)nn3)cc2=O)c(F)c1` [Example 95, (S)-2-(4-(5-chloro-2-(4-chloro-1H-1,2,3-triazol-1-yl)phenyl)-6-oxopyrimidin-1(6H)-yl)-N-(4-(2-((dimethylamino)methyl)-1H-imidazol-1-yl)-2-fluorophenyl)-3-phenylpropanamide] was 0.783 µM; that for `O=C1NCCc2cc(NC(=O)[C@H](Cc3ccccc3)n3cnc(-c4cc(Cl)ccc4-n4cc(Cl)nn4)cc3=O)ccc21` [Example 97, (S)-2-(4-(5-chloro-2-(4-chloro-1H-1,2,3-triazol-1-yl)phenyl)-6-oxopyrimidin-1(6H)-yl)-N-(1-oxo-1,2,3,4-tetrahydroisoquinolin-6-yl)-3-phenylpropanamide] was 0.0278 µM. `Nc1n[nH]c2ccc(NC(=O)[C@H](Cc3ccccc3)n3cnc(-c4cc(Cl)ccc4-n4cc(Cl)nn4)cc3=O)cc12` [Example 98, (S)-N-(3-amino-1H-indazol-5-yl)-2-(4-(5-chloro-2-(4-chloro-1H-1,2,3-triazol-1-yl)phenyl)-6-oxopyrimidin-1(6H)-yl)-3-phenylpropanamide] had a Ki of 0.554 µM. The same measure for `O=C([C@H](Cc1ccccc1)n1cnc(-c2cc(Cl)ccc2-n2cc(Cl)nn2)cc1=O)N1CCn2ncnc2C1` [Example 99, (S)-6-(5-chloro-2-(4-chloro-1H-1,2,3-triazol-1-yl)phenyl)-3-(1-(5,6-dihydro-[1,2,4]triazolo[1,5-a]pyrazin-7(8H)-yl)-1-oxo-3-phenylpropan-2-yl)pyrimidin-4(3H)-one]: 7.37 µM; for `O=C(NCCc1cnccn1)[C@H](Cc1ccccc1)n1cnc(-c2cc(Cl)ccc2-n2cc(Cl)nn2)cc1=O` [Example 100, (S)-2-(4-(5-chloro-2-(4-chloro-1H-1,2,3-triazol-1-yl)phenyl)-6-oxopyrimidin-1(6H)-yl)-3-phenyl-N-(2-(pyrazin-2-yl)ethyl)propanamide]: 7.05 µM; for `O=C1OCC[C@@H]1NC(=O)[C@H](Cc1ccccc1)n1cnc(-c2cc(Cl)ccc2-n2cc(Cl)nn2)cc1=O` [Example 101, (S)-2-(4-(5-chloro-2-(4-chloro-1H-1,2,3-triazol-1-yl)phenyl)-6-oxopyrimidin-1(6H)-yl)-N-((S)-2-oxotetrahydrofuran-3-yl)-3-phenylpropanamide]: 7.81 µM. The value for `CC(=O)NC1CCN(C(=O)[C@H](Cc2ccccc2)n2cnc(-c3cc(Cl)ccc3-n3cc(Cl)nn3)cc2=O)CC1` [Example 102, (S)-N-(1-(2-(4-(5-chloro-2-(4-chloro-1H-1,2,3-triazol-1-yl)phenyl)-6-oxopyrimidin-1(6H)-yl)-3-phenylpropanoyl)piperidin-4-yl)acetamide] was 3.05 µM. The same measure for `O=C(NC1CCC(O)CC1)[C@H](Cc1ccccc1)n1cnc(-c2cc(Cl)ccc2-n2cc(Cl)nn2)cc1=O` (stereo partly drawn) [Example 103, (S)-2-(4-(5-chloro-2-(4-chloro-1H-1,2,3-triazol-1-yl)phenyl)-6-oxopyrimidin-1(6H)-yl)-N-(4-hydroxycyclohexyl)-3-phenylpropanamide]: 0.127 µM. The compound `O=C(NC1CCCCC1)[C@H](Cc1ccccc1)n1cnc(-c2cc(Cl)ccc2-n2cc(Cl)nn2)cc1=O` [Example 104, (S)-2-(4-(5-chloro-2-(4-chloro-1H-1,2,3-triazol-1-yl)phenyl)-6-oxopyrimidin-1(6H)-yl)-N-cyclohexyl-3-phenylpropanamide] displayed a Ki of 0.231 µM.

For the compound `Cn1ccc(CNC(=O)[C@H](Cc2ccccc2)n2cnc(-c3cc(Cl)ccc3-n3cc(Cl)nn3)cc2=O)n1` [Example 105, (S)-2-(4-(5-chloro-2-(4-chloro-1H-1,2,3-triazol-1-yl)phenyl)-6-oxopyrimidin-1(6H)-yl)-N-((1-methyl-1H-pyrazol-3-yl)methyl)-3-phenylpropanamide], the Ki was found to be 2.29 µM.

Consider `Cc1ccc(NC(=O)[C@H](Cc2ccccc2)n2cnc(-c3cc(Cl)ccc3-n3cc(Cl)nn3)cc2=O)nn1` [Example 106, (S)-2-(4-(5-chloro-2-(4-chloro-1H-1,2,3-triazol-1-yl)phenyl)-6-oxopyrimidin-1(6H)-yl)-N-(6-methylpyridazin-3-yl)-3-phenylpropanamide], for which the affinity corresponds to a Ki of 0.325 µM.

In the case of `CC1=NN=C(NC(=O)[C@H](Cc2ccccc2)n2cnc(-c3cc(Cl)ccc3-n3cc(Cl)nn3)cc2=O)SC1` [Example 107, (S)-2-(4-(5-chloro-2-(4-chloro-1H-1,2,3-triazol-1-yl)phenyl)-6-oxopyrimidin-1(6H)-yl)-N-(5-methyl-6H-1,3,4-thiadiazin-2-yl)-3-phenylpropanamide], affinity was put at a Ki of 4.55 µM. The value for `O=C(O)C[C@H]1CC[C@H](NC(=O)[C@H](Cc2ccccc2)n2cnc(-c3cc(Cl)ccc3-n3cc(Cl)nn3)cc2=O)CC1` [Example 108, 2-((1S,4r)-4-((S)-2-(4-(5-chloro-2-(4-chloro-1H-1,2,3-triazol-1-yl)phenyl)-6-oxopyrimidin-1(6H)-yl)-3-phenylpropanamido)cyclohexyl)acetic acid] was 0.22 µM.

`O=C(Nc1ncnc2[nH]ncc12)[C@H](Cc1ccccc1)n1cnc(-c2cc(Cl)ccc2-n2cc(Cl)nn2)cc1=O` [Example 109, (S)-2-(4-(5-chloro-2-(4-chloro-1H-1,2,3-triazol-1-yl)phenyl)-6-oxopyrimidin-1(6H)-yl)-3-phenyl-N-(1H-pyrazolo[3,4-d]pyrimidin-4-yl)propanamide] came in with an inhibition constant Ki of 0.15 µM. The value for `O=C(Nc1nnc(C2CCC2)[nH]1)[C@H](Cc1ccccc1)n1cnc(-c2cc(Cl)ccc2-n2cc(Cl)nn2)cc1=O` [Example 110, (S)-2-(4-(5-chloro-2-(4-chloro-1H-1,2,3-triazol-1-yl)phenyl)-6-oxopyrimidin-1(6H)-yl)-N-(5-cyclobutyl-4H-1,2,4-triazol-3-yl)-3-phenylpropanamide] was 0.257 µM; that for `NC(=O)c1ccc(NC(=O)[C@H](Cc2ccccc2)n2cnc(-c3cc(Cl)ccc3-n3cc(Cl)nn3)cc2=O)nc1` [Example 111, (S)-6-(2-(4-(5-chloro-2-(4-chloro-1H-1,2,3-triazol-1-yl)phenyl)-6-oxopyrimidin-1(6H)-yl)-3-phenylpropanamido)nicotinamide] was 0.106 µM; that for `N=C(N)c1ccc(NC(=O)[C@H](Cc2ccccc2)n2cnc(-c3cc(Cl)ccc3-n3cc(Cl)nn3)cc2=O)cc1` [Example 112, (S)-N-(4-carbamimidoylphenyl)-2-(4-(5-chloro-2-(4-chloro-1H-1,2,3-triazol-1-yl)phenyl)-6-oxopyrimidin-1(6H)-yl)-3-phenylpropanamide] was 0.277 µM. The same measure for `Cc1ccc2c(NC(=O)[C@H](Cc3ccccc3)n3cnc(-c4cc(Cl)ccc4-n4cc(Cl)nn4)cc3=O)noc2c1` [Example 113, (S)-2-(4-(5-chloro-2-(4-chloro-1H-1,2,3-triazol-1-yl)phenyl)-6-oxopyrimidin-1(6H)-yl)-N-(6-methylbenzo[d]isoxazol-3-yl)-3-phenylpropanamide]: 0.074 µM; for `O=C(Nc1noc2cc(Br)ccc12)[C@H](Cc1ccccc1)n1cnc(-c2cc(Cl)ccc2-n2cc(Cl)nn2)cc1=O` [Example 114, (S)-N-(6-bromobenzo[d]isoxazol-3-yl)-2-(4-(5-chloro-2-(4-chloro-1H-1,2,3-triazol-1-yl)phenyl)-6-oxopyrimidin-1(6H)-yl)-3-phenylpropanamide]: 0.336 µM; for `O=C(Nc1noc2c(Cl)cccc12)[C@H](Cc1ccccc1)n1cnc(-c2cc(Cl)ccc2-n2cc(Cl)nn2)cc1=O` [Example 115, (S)-2-(4-(5-chloro-2-(4-chloro-1H-1,2,3-triazol-1-yl)phenyl)-6-oxopyrimidin-1(6H)-yl)-N-(7-chlorobenzo[d]isoxazol-3-yl)-3-phenylpropanamide]: 0.305 µM. The same measure for `Cc1nc2ccc(CNC(=O)[C@H](Cc3ccccc3)n3cnc(-c4cc(Cl)ccc4-n4cc(Cl)nn4)cc3=O)cc2[nH]1` [Example 116, (S)-2-(4-(5-chloro-2-(4-chloro-1H-1,2,3-triazol-1-yl)phenyl)-6-oxopyrimidin-1(6H)-yl)-N-((2-methyl-1H-benzo[d]imidazol-6-yl)methyl)-3-phenylpropanamide]: 0.463 µM; for `O=C1NCc2ccc(NC(=O)[C@H](Cc3ccccc3)n3cnc(-c4cc(Cl)ccc4-n4cc(Cl)nn4)cc3=O)cc21` [Example 117, (S)-2-(4-(5-chloro-2-(4-chloro-1H-1,2,3-triazol-1-yl)phenyl)-6-oxopyrimidin-1(6H)-yl)-N-(3-oxoisoindolin-5-yl)-3-phenylpropanamide]: 0.102 µM.
